# Source: patent US8778413B2, “Dosing regimens and methods of treatment using carbon monoxide” (Ikaria, Inc., priority 2010, dated 2014)
# Entries after “also recorded” stand apart in the source; their conditions may differ. Like-named read-outs stand apart in the source and are kept apart here. Marks after values point to notes of the source that are not given here.
# Tests used:
# [1] = type: in vivo, human; details: for CL/F, based on net COHb: intra-operative
# Protocol: (§1) Study subjects receive either (i) 12-48 hours post-operatively following renal transplant, a single dose of placebo (i.e., O2 30% in nitrogen) or carbon monoxide (Covox 12 mg/L) at 0.7 mg/kg or 2 mg/kg via inhalation for a time period of 1 hour, or (ii) intra-operatively during renal transplant surgery (at the time of re-anastomosis), a dose of placebo (i.e., O2 30% in nitrogen), 2 mg/kg or 3 mg/kg carbon monoxide via inhalation for a time period of 1 hour.
# COHb exposure is measured using conventional methods. For example, COHb exposure can be ascertained by measuring the amount present in venous blood using a device known as a CO-OXI meter. For both post- and intra-operative dosing regimens, dose-dependency of COHb Cmax and AUC is evaluated, the results of which are shown graphically in FIGS. 1A and 1B.
# [2] = tested on: renal function of renal transplant recipients; assay: Transplanted organ (renal) function: serum creatinine and calculated GFR; type: in vivo, human
# Protocol: as §1
# Organ function is assessed in subjects using pharmacodynamic markers representing renal functions. In particular, serum creatinine (SCr) levels are measured (using conventional methods) and glomerular filtration rate (GFR) is calculated via MDRD (GFR (mL/min/1.73 m2)=175×(Scr)−1.154× (Age)−0.203×(0.742 if female)×(1.212 if African American); as described by Levey et al., “Chronic Kidney Disease Epidemiology Collaboration. Using standardized serum creatinine values in the modification of diet in renal disease study equation for estimating glomerular filtration rate,” Ann Intern Med, 145(4):247-254 (2006)).
# [3] = tested on: renal transplant recipients; assay: Safety of carbon monoxide dosing regimens (AEs, ECG, QTc); type: in vivo, human
# Protocol: as §1
# All renal transplant recipients receiving carbon monoxide up to 3 mg/kg carbon monoxide (both intra-operatively and post-operatively dosed) are evaluated for safety. […] The most sensitive organs to carbon monoxide poisoning are heart and brain. As presented herein, the relationship between carbon monoxide exposure (COHb) and cardiovascular function (i.e., QTc) at 8 hours post-treatment of subjects receiving inhaled carbon monoxide or placebo (FIG. 4) is assessed via a pharmacokinetic-pharmacodynamic (PKPD) approach. Similarly, as presented herein, the relationship between subjects receiving one of various inhaled carbon monoxide doses or placebo and key neurocognitive functions (i.e., individual digit vigilance speed (FIG. 5), numeric working memory accuracy (FIG. 6) and picture recognition (FIG. 7)) up to 24 weeks post-treatment is assessed via a pharmacokinetic-pharmacodynamic (PKPD) approach.
# [4] = tested on: renal transplant recipients; assay: Neurocognitive functions (digit vigilance speed, numeric working memory accuracy, picture recognition); type: in vivo, human; details: up to 3 mg/kg inhaled 1 hour, up to 24 weeks post-treatment
# Protocol: FIG. 5, FIG. 6 and FIG. 7 illustrate the impact of carbon monoxide treatment on neurocognitive functions over 6 months in subjects receiving kidney transplants following inhalation of placebo, 0.7 mg/kg, 2 mg/kg or 3 mg/kg carbon monoxide through the evaluation of individual digit vigilance speed (FIG. 5), numeric working memory accuracy (FIG. 6) and picture recognition (FIG. 7). The CO doses were administered either 12-48 hours post-operatively following renal transplant (placebo, 0.7 mg/kg or 2 mg/kg) or intra-operatively during renal transplant surgery (placebo, 2 mg/kg or 3 mg/kg). Visit #1: Screening; Visit #4: Day 0; Visit #6: Day 1; Visit #14-16: Day 28; Visit #17-18: Follow-up Weeks 16-24. The open symbols reflect individual observations, the thin lines reflect individual trends and thick lines reflect the average trend based on linear regression. […]
# All renal transplant recipients receiving carbon monoxide up to 3 mg/kg carbon monoxide (both intra-operatively and post-operatively dosed) are evaluated for safety. […] As presented herein, the relationship between carbon monoxide exposure (COHb) and cardiovascular function (i.e., QTc) at 8 hours post-treatment of subjects receiving inhaled carbon monoxide or placebo (FIG. 4) is assessed via a pharmacokinetic-pharmacodynamic (PKPD) approach. […]
# [5] = water at 0° C.; cited from earlier work
compound,measurement,setting,value
[C-]#[O+] [carbon monoxide],"CL/F, based on net COHb","[1]; 2.0 mg/kg, mean (n=6)",0.0474 mg/kg/(% * h)
same,"CL/F, based on net COHb","[1]; 3.0 mg/kg, mean (n=5)",0.0549 mg/kg/(% * h)
same,dose-dependency of COHb Cmax and AUC (% COHb/Hb),"[1]; post- and intra-operative regimens, 0.7-3 mg/kg, FIGS. 1A and 1B",increased with an increase in the dose of inhaled carbon monoxide in an approximately proportional manner
same,renal function (GFR and Scr),"[2]; given 12-48 hours after the surgery, 0.7 or 2 mg/kg",does not improve renal function
same,renal function (GFR and Scr),"[2]; given during surgery (intra-operatively), 2 or 3 mg/kg",improves renal function in a dose-dependent manner
same,calculated GFR on Day 1 and Day 2 versus COHb concentration,"[2]; intra-operatively treated subjects, FIG. 2 left panel",increased COHb is related to improved renal function (GFR)
same,serum creatinine level on Day 2 versus COHb concentration,"[2]; intra-operatively treated subjects, FIG. 3 left panel",increased COHb is related to improved renal function (decreased serum creatinine)
same,calculated GFR on Day 1 and Day 2 versus COHb concentration,"[2]; post-operatively treated subjects, FIG. 2 right panel",increased COHb is not related to the improvement of GFR
same,serum creatinine level on Day 2 versus COHb concentration,"[2]; post-operatively treated subjects, FIG. 3 right panel",increased COHb did not improve the renal function (increased serum creatinine)
same,QT prolongation (QTc change from baseline versus COHb),"[3]; 8 hours after inhalation, up to 3 mg/kg for 1 hour",does not have an effect on QT prolongation; also recorded: unlikely to cause QT prolongation
same,tolerability,"[3]; all dose levels up to 3 mg/kg, intra- and post-operatively dosed",well tolerated
same,ECG changes,[3]; up to 3 mg/kg,"no ECG changes observed on heart rate, PR interval, QRS duration or QTcF duration"
same,new morphological changes or new infarction potentials,[3]; up to 3 mg/kg,no evidence observed on new morphological changes or new infarction potentials
same,incidence of cardiovascular and neurological AEs,"[3]; up to 3 mg/kg, versus placebo",comparable between CO and placebo treated subjects
same,impact on neurocognitive functions,[4],does not have negative impact on neurocognitive functions; also recorded: unlikely to cause QT prolongation and affect neurocognitive functions
same,impact on neurocognitive functions,[4]; listed as CO,does not show any negative impact on neurocognitive functions
same,saturation point,[5],about 0.0044 g CO/100 g medium
